In patent US20250059205A1, “Heterocyclic Compounds and Methods of Use” (AMGEN INC., priority 2021, published 2025):

Tests used:
[1] = biological target: His-tagged KRAS G12D protein (Homo sapiens, UniProt P01116, G12D); experiment: KRAS G12D TR-FRET Assay; type: binding
[2] = biological target: GDP-bound KRAS protein (aa 1-169), containing both G12D and C118A amino acid substitutions (Homo sapiens, UniProt P01116, C118A/G12D); experiment: KRAS G12D Coupled Nucleotide Exchange Assay; type: biochemical; conditions: 2 h compound pre-incubation
GDP-bound KRAS protein (aa 1-169), containing both G12D and C118A amino acid substitutions, sequence (P01116 1-169 isoform P01116-2 G12D/C118A): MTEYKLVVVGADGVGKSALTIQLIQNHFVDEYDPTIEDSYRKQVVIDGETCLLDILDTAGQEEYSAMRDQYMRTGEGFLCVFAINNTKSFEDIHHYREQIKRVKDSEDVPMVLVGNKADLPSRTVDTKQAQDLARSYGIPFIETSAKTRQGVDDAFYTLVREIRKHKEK
Description: Following compound pre-incubation, purified SOS protein (aa 564-1049) and GTP (Roche 10106399001) were added to the assay wells and incubated for an additional 30 min. […] The assay plates were then read on a PerkinElmer EnVision Multilabel Reader, using AlphaScreen® technology, and data were analyzed using a 4-parameter logistic model to calculate IC50 values.

[3] = system: Phosphorylation of ERK1/2 in A-427 cells; experiment: Phospho-ERK1/2 MSD Assay (A-427 cells); type: cell-based; conditions: Homo sapiens, A-427, 2 h, 2 h treatment, read-out: p-ERK (A427 cells) IC50
Procedure, shortened: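 ERK1/2 phosphorylation measured by Meso Scale whole-cell lysate assay after A-427 cells were exposed to a titration of compound for 2 h at 37 °C.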

[4] = system: Phosphorylation of ERK1/2 in AsPC-1 cells; experiment: Phospho-ERK1/2 MSD Assay (AsPC-1 cells); type: cell-based; conditions: Homo sapiens, ASPC1, 2 h, 2 hours treatment, read-out: p-ERK (AsPC-1 cells) IC50
Procedure, shortened: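 Read-out: MSD electrochemiluminescent detection of phosphorylated ERK1/2 in whole-cell lysates, fitted to a 4-parameter logistic curve for IC50. Prior to lysis, AsPC-1 cells (25,000 per well) received a 2 h compound dose-response at 37 °C.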

His-tagged KRAS G12D protein, sequence (P01116 1-188 isoform P01116-2 G12D): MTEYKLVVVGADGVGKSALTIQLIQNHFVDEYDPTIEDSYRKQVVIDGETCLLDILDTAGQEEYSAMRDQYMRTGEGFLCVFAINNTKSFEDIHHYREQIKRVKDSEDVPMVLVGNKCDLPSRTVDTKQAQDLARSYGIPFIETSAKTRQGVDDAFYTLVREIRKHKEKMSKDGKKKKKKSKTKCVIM

In the case of `C#Cc1cccc2cc(O)cc(-c3c(F)cc4c(N5C[C@H]6CC[C@@H](C5)N6)nc(OC[C@@]56CCCN5C[C@H](F)C6)nc4c3F)c12` [Example 190, 4-(4-((1R,5S)-3,8-diazabicyclo[3.2.1]octan-3-yl)-6,8-difluoro-2-(((2R,7aS)-2-fluorotetrahydro-1H-pyrrolizin-7a(5H)-yl)methoxy)quinazolin-7-yl)-5-ethynylnaphthalen-2-ol], the IC50 [1] is reported as 4 nM, the “Avg 2 h Coupled Exchange IC50” value [2] is reported as 5 nM and the IC50 [3] is reported as 1 nM. The IC50 [4] was 4 nM.

In the case of `CN1C[C@H](F)C[C@H]1COc1nc(N2C[C@H]3C[C@@H](C2)N3)c2cc(F)c(-c3cc(O)cc4ccccc34)c(F)c2n1` [Example 19, 4-(4-((1R,5S)-3,6-diazabicyclo[3.1. 1]heptan-3-yl)-6,8-difluoro-2-(((2S,4R)-4-fluoro-1-methylpyrrolidin-2-yl)methoxy)quinazolin-7-yl)naphthalen-2-ol], the IC50 [1] is reported as 58 nM, the “Avg 2 h Coupled Exchange IC50” value [2] is reported as 28 nM and the IC50 [3] is reported as 1790 nM. It also gave an IC50 [4] of 2090 nM.

For `C#Cc1cccc2cc(O)cc(-c3ccc4c(N5C[C@H]6CC[C@@H](C5)N6)nc(OC[C@@]56CCCN5C[C@H](F)C6)nc4c3C)c12` [Example 191, 4-(4-((1R,5S)-3,8-diazabicyclo[3.2.1]octan-3-yl)-2-(((2R,7aS)-2-fluorotetrahydro-1H-pyrrolizin-7a(5H)-yl)methoxy)-8-methylquinazolin-7-yl)-5-ethynylnaphthalen-2-ol], the IC50 [1] was 3 nM, the “Avg 2 h Coupled Exchange IC50” value [2] was 4 nM and the IC50 [3] was 4 nM. For the same molecule, the IC50 [4] was 38 nM.

For `CCc1c(F)ccc2cc(O)cc(-c3ccc4c(N5C[C@@H]6CC[C@H]5CN6)nc(OC[C@@]56CCCN5C[C@H](F)C6)nc4c3)c12` [Example 112, 4-(4-((1S,4S)-2,5-diazabicyclo[2.2.2]octan-2-yl)-2-(((2R,7aS)-2-fluorotetrahydro-1H-pyrrolizin-7a(5H)-yl)methoxy)quinazolin-7-yl)-5-ethyl-6-fluoronaphthalen-2-ol], the IC50 [1] was 2 nM, the “Avg 2 h Coupled Exchange IC50” value [2] was 2 nM and the IC50 [3] was 37 nM. The IC50 [4] was 90 nM.

For `CCc1c(F)ccc2cc(O)cc(-c3cc(F)c4c(N5C[C@H]6CC[C@@H](C5)N6)nc(OC[C@@]56CCCN5C[C@H](F)C6)nc4c3F)c12` [Example 231, 4-(4-((1R,5S)-3,8-diazabicyclo[3.2.1]octan-3-yl)-5,8-difluoro-2-(((2R,7aS)-2-fluorotetrahydro-1H-pyrrolizin-7a(5H)-yl)methoxy)quinazolin-7-yl)-5-ethyl-6-fluoronaphthalen-2-ol], the IC50 [1] was 4 nM, the “Avg 2 h Coupled Exchange IC50” value [2] was 5 nM and the IC50 [3] was 15 nM. It also gave an IC50 [4] of 68 nM.

`CC(C)(O)COc1nc(N2C[C@H]3CC[C@@H](C2)N3)c2cc(F)c(-c3cc(O)cc4ccccc34)c(F)c2n1` [Example 64, 4-(4-((1R,5S)-3,8-diazabicyclo[3.2. 1]octan-3-yl)-6,8-difluoro-2-(2-hydroxy-2-methylpropoxy)quinazolin-7-yl)naphthalen-2-ol] was tested, and the IC50 [1] was 51 nM, the “Avg 2 h Coupled Exchange IC50” value [2] was 17 nM and the IC50 [3] was 5050 nM. The IC50 [4] was 7030 nM.

With `CCc1c(F)ccc2cc(O)cc(-c3c(F)cc4c(N5CC6CCC(C5)N6)nc(OCC56CCCN5C[C@H](F)C6)nc4c3F)c12` (atropisomer, axis not shown; (M)) [Example 232, (M)-4-(4-((1R,5S)-3,8-diazabicyclo[3.2.1]octan-3-yl)-6,8-difluoro-2-(((2R,7aS)-2-fluorotetrahydro-1H-pyrrolizin-7a(5H)-yl)methoxy)quinazolin-7-yl)-5-ethyl-6-fluoronaphthalen-2-ol] the IC50 [1] was 1 nM, the “Avg 2 h Coupled Exchange IC50” value [2] was 2 nM and the IC50 [3] was 3 nM. For the same molecule, the IC50 [4] was 8 nM.
